Experimental data as given in patent US11999727B2 (Tango Therapeutics, Inc., priority 2020, dated 2024).
Where two headings read alike, the source gives them in different places.

Legend:
[1] = target: T1, PRMT5 (Homo sapiens, UniProt O14744); test: PRMT5 biochemical IC50 assay with SAM as cofactor; details: PRMT5, SAM as cofactor; read-out: SAM IC50
T1 construct: purchased Viva (custom protein)

[2] = target: T1, PRMT5; test: PRMT5 biochemical IC50 assay with no cofactor; details: PRMT5, no cofactor; read-out: No Cofactor/rel IC50
Source text: Table 1 indicates IC50 values (μM) against PRMT5 for exemplary compounds in the presence of SAM as cofactor, with no cofactor, and with MTA as cofactor, respectively (columns 4-6). […] Ki values can be calculated from the IC50 values as described in the Examples section. As detailed in the Examples section, for the assay performed in the presence of SAM, IC50=Ki×1.5 (Ki=IC50/1.5).

[3] = tested on: HAP1 MTAP-deleted cell line; test: Viability assay, MTAP-deleted cell line; type: cell-based; details: HAP1 MTAP-deleted, read-out: HAP1 MTAP deleted viability
Source text: Table 1 additionally indicates IC50 values in a viability assay for the MTAP-deleted cell line (column 10), indicating the effect of treatment with compound on cell survival.

[4] = tested on: HAP1 MTAP-intact cell line; test: SDMA in-cell western assay, HAP1 MTAP-intact; type: cell-based; details: HAP1 MTAP-intact, read-out: MTAP HAP1 intact IC50
Procedure, shortened: (§1)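 Compounds were tested in HAP1 cells differing only in MTAP status (endogenous expression versus null). Cellular SDMA levels were then measured by in-cell western, giving an IC50 in each background.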

[5] = target: T1, PRMT5; test: PRMT5 biochemical IC50 assay with MTA as cofactor; details: PRMT5, MTA as cofactor; read-out: MTA IC50
[6] = tested on: HAP1 MTAP-deleted cell line; test: SDMA in-cell western assay, HAP1 MTAP-deleted; type: cell-based; details: for IC50: HAP1 MTAP-deleted, read-out: HAP1 MTAP deleted IC50; for MTAP intact/deleted ratio: IC50 ratio HAP1 MTAP-intact / HAP1 MTAP-deleted
Procedure, shortened: as §1

[7] = Homo sapiens, HAP1, viability assay
[8] = Homo sapiens, HAP1, SDMA in-cell western

T1 sequence (O14744 whole entry): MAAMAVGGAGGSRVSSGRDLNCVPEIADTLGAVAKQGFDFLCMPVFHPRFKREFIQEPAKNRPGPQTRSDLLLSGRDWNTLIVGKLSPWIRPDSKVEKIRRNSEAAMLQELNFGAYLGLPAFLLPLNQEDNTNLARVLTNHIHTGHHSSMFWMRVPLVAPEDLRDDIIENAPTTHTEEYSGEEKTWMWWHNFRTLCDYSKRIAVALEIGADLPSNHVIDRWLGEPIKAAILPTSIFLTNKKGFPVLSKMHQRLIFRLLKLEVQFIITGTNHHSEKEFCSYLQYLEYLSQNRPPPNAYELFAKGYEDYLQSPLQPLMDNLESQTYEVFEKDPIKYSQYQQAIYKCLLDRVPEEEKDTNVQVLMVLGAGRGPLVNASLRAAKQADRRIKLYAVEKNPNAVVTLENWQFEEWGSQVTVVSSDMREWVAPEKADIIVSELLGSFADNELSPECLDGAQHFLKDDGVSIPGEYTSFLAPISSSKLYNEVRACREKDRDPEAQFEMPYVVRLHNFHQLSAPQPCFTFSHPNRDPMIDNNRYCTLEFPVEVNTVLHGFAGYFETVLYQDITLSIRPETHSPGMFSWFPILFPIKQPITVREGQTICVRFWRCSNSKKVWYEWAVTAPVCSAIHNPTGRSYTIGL
T1 sequence (Q9BQA1 whole entry partner): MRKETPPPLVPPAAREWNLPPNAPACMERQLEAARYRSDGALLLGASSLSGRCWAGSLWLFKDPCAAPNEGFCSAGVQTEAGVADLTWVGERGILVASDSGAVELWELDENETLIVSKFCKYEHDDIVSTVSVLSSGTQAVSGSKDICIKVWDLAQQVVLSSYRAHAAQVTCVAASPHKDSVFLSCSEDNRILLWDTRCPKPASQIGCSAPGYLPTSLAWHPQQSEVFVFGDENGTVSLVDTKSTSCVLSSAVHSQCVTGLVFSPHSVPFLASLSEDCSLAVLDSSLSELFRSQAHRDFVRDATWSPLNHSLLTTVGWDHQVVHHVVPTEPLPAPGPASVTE

IC50 [1]	IC50 [2]	IC50 [4, 8]	IC50 [5]	IC50 [6, 8]	IC50 ([4]; SDMA in-cell western)	IC50 ([6]; SDMA in-cell western)	Compound	IC50 [3, 7]	MTAP intact/deleted ratio ([6]; SDMA in-cell western)	IC50 ([3]; viability assay)
0.05 to 0.5 µM	> 0.5 µM	> 1 µM	0.05 to 0.5 µM	> 1 µM			[H][C@@]1([C@]2([H])C[C@@]3(C[C@H](O)C3)C2)CC[C@@H](C)CN1C(=O)C(=O)Nc1cnc(N)c(C)c1 (single isomer, unassigned) [Compound 767]	> 10 µM	B (an IC50 ratio greater than or equal to 3 fold but lower than 10 fold)	
0.05 to 0.5 µM	0.05 to 0.5 µM		0.05 to 0.5 µM		> 1 µM	0.1 to 1 µM	[H][C@]1([C@]2([H])C[C@@]3(C[C@H](O)C3)C2)CC[C@H](C)CN1C(=O)C(=O)Nc1cnc(N)c(C)c1 (single isomer, unassigned) [Compound 768]		B (an IC50 ratio greater than or equal to 3 fold but lower than 10 fold)	> 10 µM
> 0.5 µM	> 0.5 µM		> 0.5 µM		> 1 µM	> 1 µM	[H][C@@]1([C@]2([H])C[C@]3(C[C@H](O)C3)C2)CC[C@@H](C)CN1C(=O)C(=O)Nc1cnc(N)c(C)c1 (single isomer, unassigned) [Compound 769]		C (an IC50 ratio of less than 3 fold)	> 10 µM
> 0.5 µM	> 0.5 µM	> 1 µM	> 0.5 µM	> 1 µM			COc1ncc(NC(=O)C(=O)N2C[C@@H](C)CC[C@@H]2c2ccc(C)nc2)cc1C(N)=O (single isomer, unassigned) [Compound 770]	> 10 µM	C (an IC50 ratio of less than 3 fold)	
> 0.5 µM	> 0.5 µM	> 1 µM	> 0.5 µM	> 1 µM			CCc1cc(NC(=O)C(=O)N2C[C@H](C)CC[C@H]2c2ccc3[nH]cnc3c2)cnc1N (single isomer, unassigned) [Compound 771]	> 10 µM	C (an IC50 ratio of less than 3 fold)	
> 0.5 µM	> 0.5 µM	> 1 µM	> 0.5 µM	> 1 µM			C[C@H]1CC[C@H](c2ccc(-c3nccs3)cc2)N(C(=O)C(=O)Nc2cncc(C(N)=O)c2)C1 (single isomer, unassigned) [Compound 772]	> 10 µM	B (an IC50 ratio greater than or equal to 3 fold but lower than 10 fold)	
> 0.5 µM	> 0.5 µM	> 1 µM	> 0.5 µM	> 1 µM			Cc1cc(NC(=O)C(=O)N2C[C@H](C)C(F)(F)C[C@H]2c2ccc(F)cc2)cnc1N (single isomer, unassigned) [Compound 777]	> 10 µM	B (an IC50 ratio greater than or equal to 3 fold but lower than 10 fold)	
0.05 to 0.5 µM	< 0.05 µM	> 1 µM	< 0.05 µM	< 0.1 µM			C[C@H]1CC[C@H](c2ccc3[nH]ncc3n2)N(C(=O)C(=O)Nc2cncc(C(N)=O)c2)C1 (single isomer, unassigned) [Compound 778]	1 to 10 µM	A (an IC50 ratio greater than or equal to 10 fold)	
> 0.5 µM	> 0.5 µM	> 1 µM	> 0.5 µM	0.1 to 1 µM			Cc1cc(NC(=O)C(=O)N2C[C@@H](C)CC[C@@H]2c2ccc3[nH]ncc3n2)cnc1N (single isomer, unassigned) [Compound 780]	> 10 µM	A (an IC50 ratio greater than or equal to 10 fold)	
< 0.05 µM	< 0.05 µM	0.1 to 1 µM	< 0.05 µM	< 0.1 µM			Cc1cc(NC(=O)C(=O)N2C[C@H](C)CC[C@H]2c2ccn(-c3cc[nH]n3)n2)cnc1N (single isomer, unassigned) [Compound 782]	< 1 µM	A (an IC50 ratio greater than or equal to 10 fold)	
